# Source: US12286632B2, “Rationally-designed synthetic peptide shuttle agents for delivering polypeptide cargos from an extracellular space to the cytosol and/or nucleus of a target eukaryotic cell, uses thereof, methods and kits relating to same” (Feldan Bio Inc., priority 2016, dated 2025)
# Ends that are not written are not given here. Peptide text beside a SMILES is read from it.
# Legend:
# [1] = test system: HeLa cells; assay: Plasmid DNA (pEGFP-C1) transfection by peptides (% cells with GFP signal, cell viability); details: DNA transfection in HeLa cells using peptides; pEGFP-C1 plasmid
# [2] = in vitro; details: human, HeLa cells
# [3] = test system: HeLa cells; assay: GFP-NLS protein transduction assay (flow cytometry: Pos cells %, viability %, relative fluorescence intensity; microscopy); details: HeLa cells
# [4] = in vitro; details: human, HeLa cells; for viability: Cell viability (%) (±St Dev.; n = 3); for viability at 1 min, 10 µM / viability at 1 min, 8 µM / viability at 2 min, 5 µM: Cell viability (%) (±St. Dev.; n = 3)
# [5] = test system: HeLa cells; details: human, 10 s, 50 µM
# [6] = in vitro; details: human, NCI-H196 cells
# [7] = in vitro; details: human, HCC-78 cells
# [8] = test system: THP-1 cells; assay: HOXB4-WT transduction: target gene mRNA by real-time PCR (Fold over control) and total RNA (ng/μL) as marker for cell viability; type: cell-based, human; details: THP-1 cells; peptide alone 1 μM, HOXB4-WT 0 μM; marker for cell viability
# Experimental: Control and treated cells are transferred to separate sterile 1.5-mL tubes and centrifuged for 5 minutes at 300g. The cell pellets are resuspended in appropriate buffer to lyse the cells. RNAase-free 70% ethanol is then added followed by mixing by pipetting. The lysates are transferred to an RNeasy™ Mini spin column and centrifuged 30 seconds at 13000 RPM. After several washes with appropriate buffers and centrifugation steps, the eluates are collected in sterile 1.5-mL tubes on ice, and the RNA quantity in each tube is then quantified with a spectrophotometer. For DNase treatment, 2 μg of RNA is diluted in 15 μL of RNase-free water. 1.75 μL of 10X DNase buffer and 0.75 μL of DNase is then added, followed by incubation at 37° C. for 15 minutes. For reverse transcriptase treatment, 0.88 μL of EDTA […] is added, followed by incubation at 75° C. for 5 minutes. In a PCR tube, […] of DNase-treated RNA is mixed with 4 μL of iScript™ Reverse transcription Supermix (5X) and […] of nuclease-free water. The mix is incubated in a PCR machine with the following program: 5 min at 25° C., 30 min at 42° C. and 5 min at 85° C. Newly synthesized cDNA is transferred in sterile 1.5-mL tubes and diluted in 2 μL of nuclease-free water. 18 μL per well of a qPCR machine (CFX-96™) mix is then added in a PCR plate for analysis.
# Briefly, THP-1 cells were plated at 30 000 cells/well one day before transduction. HOXB4-WT recombinant protein ([…]; Example 14.1) was co-incubated with different concentrations of His-CM18-PTD4 ([…]) and then exposed to THP-1 cells for 2.5 hours in the presence of serum. The cells were subjected to real time-PCR analysis as described in Example 14.2 to measure the mRNA levels of a target gene as a marker for HOXB4 activity, which was then normalized to the target gene mRNA levels detected in the negative control cells (no treatment), to obtain a “Fold over control” value. Total RNA levels (ng/μL) were also measured as a marker for cell viability.
# Briefly, THP-1 cells were plated at 30 000 cells/well one day before the first time course experiment. HOXB4-WT recombinant protein (1.5 μM; Example 14.1) was co-incubated with His-CM18-PTD4 (0.8 μM) and then exposed to THP-1 cells for 0, 2.5, 4, 24 or 48 hours in presence of serum. The cells were subjected to real time-PCR analysis as described in Example 14.2 to measure mRNA levels of a target gene as a marker for HOXB4 activity, which was then normalized to the target gene mRNA levels detected in the negative control cells (no treatment), to obtain a “Fold over control” value. Total RNA levels (ng/μL) were also measured as a marker for cell viability.
# Briefly, THP-1 cells were plated at 30 000 cells/well one day before the first time course experiment. HOXB4-WT recombinant protein (0.3 μM; Example 14.1) was co-incubated with His-CM18-PTD4 (0.8 μM) and then exposed to THP-1 cells for 0, 0.5, 1, 2, 2.5, 3 or 4 hours in presence of serum. The cells were subjected to real time-PCR analysis as described in Example 14.2 to measure mRNA levels of a target gene as a marker for HOXB4 activity, which was then normalized to target gene mRNA levels detected in the negative control cells (no treatment), to obtain a “Fold over control” value. Total RNA levels (ng/μL) were also measured as a marker for cell viability.
# Briefly, THP-1 cells were plated at 30 000 cells/well one day before the first time course experiment. HOXB4-WT recombinant protein (1.5 μM; Example 14.1) co-incubated with the shuttle agents His-CM18-PTD4, TAT-KALA, EB1-PTD4, His-C(LLKK)3C-PTD4 and His-CM18-PTD4-His at 0.8 μM, and then exposed to THP-1 cells for 2.5 hours in presence of serum. The cells were subjected to real time-PCR analysis as described in Example 14.2 to measure mRNA levels of a target gene as a marker for HOXB4 activity, which was then normalized to target gene mRNA levels detected in the negative control cells (no treatment), to obtain a “Fold over control” value. […]
# [9] = in vitro; details: human, THP-1 cells
compound,measurement,setting,value
CC(C)C[C@H](NC(=O)[C@H](CC(C)C)NC(=O)[C@H](CCCCN)NC(=O)[C@H](CCCCN)NC(=O)[C@H](CC(C)C)NC(=O)[C@H](CC(C)C)NC(=O)[C@H](CCCCN)NC(=O)[C@H](CCCCN)NC(=O)[C@H](CC(C)C)NC(=O)[C@H](CC(C)C)NC(=O)[C@@H](N)CS)C(=O)N[C@@H](CCCCN)C(=O)N[C@@H](CCCCN)C(=O)N[C@@H](CS)C(=O)O [C(LLKK)3] (H-CLLKKLLKKLLKKC-OH; N-terminus and C-terminus assumed),Mean % cells with GFP signal (±St. Dev.; n = 3),[1],0.00 ± 0.00%
same,viability,[2],81.7 ± 2.34%
CC[C@H](C)[C@H](NC(=O)[C@H](CCCCN)NC(=O)[C@H](CCCCN)NC(=O)[C@H](Cc1ccccc1)NC(=O)[C@H](CC(C)C)NC(=O)[C@H](CCCCN)NC(=O)[C@H](Cc1c[nH]c2ccccc12)NC(=O)[C@@H](N)CCCCN)C(=O)NCC(=O)N[C@@H](C)C(=O)N[C@H](C(=O)N[C@@H](CC(C)C)C(=O)N[C@@H](CCCCN)C(=O)N[C@H](C(=O)N[C@@H](CC(C)C)C(=O)N[C@H](C(=O)N[C@H](C(=O)NCC(=O)N[C@@H](CCCNC(=N)N)C(=O)N[C@@H](CCC(N)=O)C(=O)N[C@H](C(=O)N[C@@H](CCCCN)C(=O)N[C@H](C(=O)N[C@@H](Cc1c[nH]c2ccccc12)C(=O)N[C@@H](Cc1ccccc1)C(=O)N[C@@H](CCC(N)=O)C(=O)N[C@@H](CC(N)=O)C(=O)N[C@@H](CCCNC(=N)N)C(=O)N[C@@H](CCCNC(=N)N)C(=O)N[C@@H](CCSC)C(=O)N[C@@H](CCCCN)C(=O)N[C@@H](Cc1c[nH]c2ccccc12)C(=O)N[C@@H](CCCCN)C(=O)N[C@@H](CCCCN)C(=O)N[C@@H](CS)C(=O)O)[C@@H](C)CC)[C@@H](C)CC)[C@@H](C)O)[C@@H](C)O)C(C)C)C(C)C [CM18-Pen-Cys],Mean % cells with GFP signal (±St. Dev.; n = 3),[1],0.01 ± 0.0%
same,viability,[2],16.1 ± 0.12%
CC(C)C[C@H](NC(=O)[C@H](CCCNC(=N)N)NC(=O)[C@H](CCC(=O)O)NC(=O)CNC(=O)[C@H](CCC(N)=O)NC(=O)[C@@H](NC(=O)[C@H](Cc1c[nH]c2ccccc12)NC(=O)[C@H](CC(C)C)NC(=O)[C@H](CCCCN)NC(=O)[C@H](CC(C)C)NC(=O)[C@H](CC(C)C)NC(=O)[C@H](CCCNC(=N)N)NC(=O)[C@H](CO)NC(=O)[C@H](Cc1c[nH]c2ccccc12)NC(=O)[C@H](CC(C)C)NC(=O)[C@H](CS)NC(=O)[C@H](CC(C)C)NC(=O)[C@H](CC(C)C)NC(=O)[C@H](Cc1c[nH]cn1)NC(=O)[C@H](Cc1c[nH]cn1)NC(=O)[C@H](Cc1c[nH]cn1)NC(=O)[C@H](Cc1c[nH]cn1)NC(=O)[C@H](Cc1c[nH]cn1)NC(=O)[C@@H](N)Cc1c[nH]cn1)[C@@H](C)O)C(=O)N[C@@H](CCCCN)C(=O)N[C@@H](C)C(=O)N[C@@H](CCCCN)C(=O)N[C@@H](CS)C(=O)N[C@@H](C)C(=O)N[C@@H](CCCCN)C(=O)N[C@@H](C)C(=O)N[C@@H](CS)C(=O)N[C@@H](CCC(=O)O)C(=O)N[C@@H](CCCNC(=N)N)C(=O)O [FSD24] (H-HHHHHHLLCLWSRLLKLWTQGERLKAKCAKACER-OH; N-terminus and C-terminus assumed),Mean % cells with GFP signal (±St. Dev.; n = 3),"[3]; Table B2, GFP-NLS cargo",37.48 ± 4.08%
same,Mean % cells with GFP signal (±St. Dev.; n = 3),[1],0.20 ± 0.00%
same,viability,[2],96.5 ± 3.02%
same,viability,[4],75.3 ± 3.93%
GLFEALLELLESLWELLLEAYARAAARQARA [JST-PTD4],viability,[2],70.2 ± 5.39%
same,Cell viability (%) (±St. Dev.; n = 3),[5],98.9 ± 0.57%
HHHHHHCMKVVWEIVLAKYKGGGGRARAASRRARA [FSD42],Mean % cells with GFP signal (±St. Dev.; n = 3),"[3]; Table C3, GFP-NLS 10 μM, 10 μM of the peptide, 1 min",1.59 ± 0.39%
same,Mean % cells with GFP signal (±St. Dev.; n = 3),[1],0.12 ± 0.02%
same,viability,[2],96.7 ± 1.96%
same,"viability at 1 min, 10 µM",[4],97.3 ± 1.07%
HHHHHHHHHKWKLFKKIGAVLKVLTTGYARAAARQARA [Peptide 9His-CM18-PTD4],Mean % cells with GFP signal (±St. Dev.; n = 3),[1],0.04 ± 0.01%
same,viability,[2],98.72 ± 0.93%
HHHHHHLLKLWSRLLKLWTQGRRLKAKRAKAHHHHHH [FSD5],"viability at 1 min, 8 µM",[6],69.9 ± 6.38%
same,"viability at 1 min, 10 µM",[6],47.2 ± 3.54%
same,"viability at 2 min, 5 µM",[6],77.2 ± 6.17%
same,viability,[2],93.2 ± 8.63%
same,viability,[4],86 ± 7.45%
same,"viability at 1 min, 8 µM",[4],85 ± 6.27%
same,"viability at 1 min, 10 µM",[4],76 ± 7.45%
same,"viability at 2 min, 5 µM",[4],35.5 ± 4.82%
same,"viability at 1 min, 8 µM",[7],87.7 ± 6.52%
same,"viability at 1 min, 10 µM",[7],15.9 ± 0.83%
same,"viability at 2 min, 5 µM",[7],75.3 ± 6.18%
KWKLARAFARAIKKLGGSGGGSYARALRRQARTG [FSD10 alone],Total RNA in ng/μL (mean ± St. Dev),[8],181 ± 10.7 ng/µL
KWKLARAFARAIKKLGGSGGGSYARALRRQARTG [FSD10],"viability at 1 min, 8 µM",[6],81 ± 8.02%
same,"viability at 1 min, 10 µM",[6],85.4 ± 7.66%
same,"viability at 2 min, 5 µM",[6],83.2 ± 7.51%
same,viability,[2],72.4 ± 8.61%
same,viability,[4],79.8 ± 4.73%
same,"viability at 1 min, 8 µM",[4],83.4 ± 6.38%
same,"viability at 1 min, 10 µM",[4],79.8 ± 6.37%
same,"viability at 2 min, 5 µM",[4],55.6 ± 4.28%
same,"viability at 0.5 min, 2 µM",[9],96.3 ± 2.16%
same,"viability at 1 min, 1 µM",[9],93.5 ± 5.64%
same,"viability at 1 min, 2 µM",[9],85.6 ± 5.22%
same,"viability at 0.025 h, 1 µM",[9],78.4 ± 6.15%
same,"viability at 1 min, 8 µM",[7],76.1 ± 6.19%
same,"viability at 1 min, 10 µM",[7],63.1 ± 5.27%
same,"viability at 2 min, 5 µM",[7],83.1 ± 5.99%
KWKLARAFARAIKKLYARALRRQARTG [FSD12],"viability at 1 min, 8 µM",[6],71.9 ± 6.44%
same,"viability at 1 min, 10 µM",[6],72.5 ± 6.29%
same,"viability at 2 min, 5 µM",[6],76.5 ± 6.37%
same,viability,[2],58.6 ± 2.07%
same,viability,[4],67.8 ± 4.83%
same,"viability at 1 min, 8 µM",[7],66.3 ± 6.03%
same,"viability at 1 min, 10 µM",[7],46.5 ± 4.18%
same,"viability at 2 min, 5 µM",[7],75.1 ± 6.31%
LLKLWSRLLKLWTQGGSGGGSGRRLKAKRAKA [FSD18 alone],Total RNA in ng/μL (mean ± St. Dev),[8],157 ± 3.9 ng/µL
RRLSYSRRRFWEAKLAKALAKALAKHLAKALAKALKACEA [SynB3-KALA],Cell viability (%) (±St. Dev.; n = 3),[5],91.1 ± 0.82%
RRRRRRRRRWEAKLAKALAKALAKHLAKALAKALKACEA [9Arg-KALA],Cell viability (%) (±St. Dev.; n = 3),[5],62.8 ± 5.11%
YGRKKRRQRRRCKKALLALALHHLAHLALHLALALKKA [TAT-LAH4],Mean % cells with GFP signal (±St. Dev.; n = 3),[1],0.15 ± 0.00%
same,viability,[2],96.2 ± 2.7%
